Laboratory results published in patent publication US9340559B2, “Proteasome inhibitor delanzomib for use in the treatment of lupus” (Cephalon, Inc., priority 2011, dated 2016).
Read-outs that look alike come from different tables or passages of the source.

Columns and labels:
[1] = tested on: NZM mice; test: Antinuclear antibody (ANA) ELISA (anti-chromatin, anti-Smith Ag, anti-dsDNA), serum of NZM mice (Example 2); assay type: in vivo, mouse
[2] = tested on: NZM mice; assay type: in vivo, mouse

CC(C)C[C@H](NC(=O)[C@@H](NC(=O)c1cccc(-c2ccccc2)n1)[C@@H](C)O)B(O)O [COMPOUND A, [(1R)-1-[[(2S,3R)-3-hydroxy-2-[6-phenyl-pyridine-2-carbonyl)amino]-1-oxobutyl]amino]-3-methylbutylboronic acid]
ANA Smith Ag AUC, percent change vs vehicle ([1]; G1 3 mg/kg ip, 1× wk): −88% | ANA chromatin AUC, percent change vs vehicle ([1]; G1 3 mg/kg ip, 1× wk): −63% | ANA dsDNA AUC, percent change vs vehicle ([1]; G1 3 mg/kg ip, 1× wk): −21% | ANA Smith Ag AUC, percent change vs vehicle ([1]; G2 3 mg/kg ip, 2× wk): 8% | ANA chromatin AUC, percent change vs vehicle ([1]; G2 3 mg/kg ip, 2× wk): −79% | ANA dsDNA AUC, percent change vs vehicle ([1]; G2 3 mg/kg ip, 2× wk): −68% | serum anti-dsDNA Ab decrease vs vehicle ([1]; once weekly COMPOUND A): 21% | serum anti-Smith Ag Ab decrease vs vehicle ([1]; once weekly COMPOUND A (3 mg/kg ip)): 88% | serum anti-chromatin Ab decrease vs vehicle ([1]; twice weekly (3 mg/kg ip)): 79% | serum anti-dsDNA Ab decrease vs vehicle ([1]; twice weekly COMPOUND A): 68% | serum anti-chromatin Ab decrease vs vehicle ([1]; weekly (3 mg/kg ip)): 63% | p, serum IL-12p40/p70 concentration vs G5 Bortezomib 0.3 mg/kg 1× wk ip ([2]; G1 3 mg/kg 1× wk ip): NS (NS = not significant (p > 0.05)) | p, serum IL-12p40/p70 concentration vs G6 Bortezomib 0.3 mg/kg 2× wk ip ([2]; G1 3 mg/kg 1× wk ip): NS (NS = not significant (p > 0.05)) | p, serum IL-12p40/p70 concentration vs G7 CTX 50 mg/kg 1× wk ip ([2]; G1 3 mg/kg 1× wk ip): NS (NS = not significant (p > 0.05)) | p, serum IL-12p40/p70 concentration vs G8 Dex 1.5 mg/kg 3× wk ip ([2]; G1 3 mg/kg 1× wk ip): NS (NS = not significant (p > 0.05)) | p, serum IL-12p40/p70 concentration vs G9 Vehicle 1× wk ip ([2]; G1 3 mg/kg 1× wk ip): p < 0.001 | p, serum IL-13 concentration vs G5 Bortezomib 0.3 mg/kg 1× wk ip ([2]; G1 3 mg/kg 1× wk ip): NS (NS = not significant (p > 0.05)) | p, serum IL-13 concentration vs G6 Bortezomib 0.3 mg/kg 2× wk ip ([2]; G1 3 mg/kg 1× wk ip): NS (NS = not significant (p > 0.05)) | p, serum IL-13 concentration vs G7 CTX 50 mg/kg 1× wk ip ([2]; G1 3 mg/kg 1× wk ip): p < 0.001 | p, serum IL-13 concentration vs G8 Dex 1.5 mg/kg 3× wk ip ([2]; G1 3 mg/kg 1× wk ip): NS (NS = not significant (p > 0.05)) | p, serum IL-13 concentration vs G9 Vehicle 1× wk ip ([2]; G1 3 mg/kg 1× wk ip): NS (NS = not significant (p > 0.05)) | p, serum IL-17A concentration vs G5 Bortezomib 0.3 mg/kg 1× wk ip ([2]; G1 3 mg/kg 1× wk ip): NS (NS = not significant (p > 0.05)) | p, serum IL-17A concentration vs G6 Bortezomib 0.3 mg/kg 2× wk ip ([2]; G1 3 mg/kg 1× wk ip): p < 0.01 | p, serum IL-17A concentration vs G7 CTX 50 mg/kg 1× wk ip ([2]; G1 3 mg/kg 1× wk ip): p < 0.001 | p, serum IL-17A concentration vs G8 Dex 1.5 mg/kg 3× wk ip ([2]; G1 3 mg/kg 1× wk ip): NS (NS = not significant (p > 0.05)) | p, serum IL-17A concentration vs G9 Vehicle 1× wk ip ([2]; G1 3 mg/kg 1× wk ip): NS (NS = not significant (p > 0.05)) | p, serum IP-10 concentration vs G5 Bortezomib 0.3 mg/kg 1× wk ip ([2]; G1 3 mg/kg 1× wk ip): NS (NS = not significant (p > 0.05)) | p, serum IP-10 concentration vs G6 Bortezomib 0.3 mg/kg 2× wk ip ([2]; G1 3 mg/kg 1× wk ip): NS (NS = not significant (p > 0.05)) | p, serum IP-10 concentration vs G7 CTX 50 mg/kg 1× wk ip ([2]; G1 3 mg/kg 1× wk ip): p < 0.001 | p, serum IP-10 concentration vs G8 Dex 1.5 mg/kg 3× wk ip ([2]; G1 3 mg/kg 1× wk ip): NS (NS = not significant (p > 0.05)) | p, serum IP-10 concentration vs G9 Vehicle 1× wk ip ([2]; G1 3 mg/kg 1× wk ip): NS (NS = not significant (p > 0.05)) | p, serum MIG concentration vs G5 Bortezomib 0.3 mg/kg 1× wk ip ([2]; G1 3 mg/kg 1× wk ip): NS (NS = not significant (p > 0.05)) | p, serum MIG concentration vs G6 Bortezomib 0.3 mg/kg 2× wk ip ([2]; G1 3 mg/kg 1× wk ip): NS (NS = not significant (p > 0.05)) | p, serum MIG concentration vs G7 CTX 50 mg/kg 1× wk ip ([2]; G1 3 mg/kg 1× wk ip): p < 0.001 | p, serum MIG concentration vs G8 Dex 1.5 mg/kg 3× wk ip ([2]; G1 3 mg/kg 1× wk ip): NS (NS = not significant (p > 0.05)) | p, serum MIG concentration vs G9 Vehicle 1× wk ip ([2]; G1 3 mg/kg 1× wk ip): NS (NS = not significant (p > 0.05)) | p, serum TNFα concentration vs G5 Bortezomib 0.3 mg/kg 1× wk ip ([2]; G1 3 mg/kg 1× wk ip): NS (NS = not significant (p > 0.05)) | p, serum TNFα concentration vs G6 Bortezomib 0.3 mg/kg 2× wk ip ([2]; G1 3 mg/kg 1× wk ip): NS (NS = not significant (p > 0.05)) | p, serum TNFα concentration vs G7 CTX 50 mg/kg 1× wk ip ([2]; G1 3 mg/kg 1× wk ip): NS (NS = not significant (p > 0.05)) | p, serum TNFα concentration vs G8 Dex 1.5 mg/kg 3× wk ip ([2]; G1 3 mg/kg 1× wk ip): p <0.001 | p, serum TNFα concentration vs G9 Vehicle 1× wk ip ([2]; G1 3 mg/kg 1× wk ip): NS (NS = not significant (p > 0.05)) | Cytokine IL-12 AUC, percent change vs vehicle ([2]; G1 3 mg/kg ip, 1× wk): −83% | Cytokine IL-13 AUC, percent change vs vehicle ([2]; G1 3 mg/kg ip, 1× wk): −27% | Cytokine IL-17A AUC, percent change vs vehicle ([2]; G1 3 mg/kg ip, 1× wk): −41% | Cytokine IP-10 AUC, percent change vs vehicle ([2]; G1 3 mg/kg ip, 1× wk): +17% | Cytokine MIG AUC, percent change vs vehicle ([2]; G1 3 mg/kg ip, 1× wk): −55% | Cytokine TNFα AUC, percent change vs vehicle ([2]; G1 3 mg/kg ip, 1× wk): −61% | serum IL-12p40/p70 decrease vs vehicle ([2]; G1: 3 mg/kg ip once per week): 83% | p, serum IL-12p40/p70 concentration vs G5 Bortezomib 0.3 mg/kg 1× wk ip ([2]; G2 3 mg/kg 2× wk ip): NS (NS = not significant (p > 0.05)) | p, serum IL-12p40/p70 concentration vs G6 Bortezomib 0.3 mg/kg 2× wk ip ([2]; G2 3 mg/kg 2× wk ip): NS (NS = not significant (p > 0.05)) | p, serum IL-12p40/p70 concentration vs G7 CTX 50 mg/kg 1× wk ip ([2]; G2 3 mg/kg 2× wk ip): NS (NS = not significant (p > 0.05)) | p, serum IL-12p40/p70 concentration vs G8 Dex 1.5 mg/kg 3× wk ip ([2]; G2 3 mg/kg 2× wk ip): NS (NS = not significant (p > 0.05)) | p, serum IL-12p40/p70 concentration vs G9 Vehicle 1× wk ip ([2]; G2 3 mg/kg 2× wk ip): p < 0.01 | p, serum IL-13 concentration vs G5 Bortezomib 0.3 mg/kg 1× wk ip ([2]; G2 3 mg/kg 2× wk ip): NS (NS = not significant (p > 0.05)) | p, serum IL-13 concentration vs G6 Bortezomib 0.3 mg/kg 2× wk ip ([2]; G2 3 mg/kg 2× wk ip): NS (NS = not significant (p > 0.05)) | p, serum IL-13 concentration vs G7 CTX 50 mg/kg 1× wk ip ([2]; G2 3 mg/kg 2× wk ip): P < 0.001 | p, serum IL-13 concentration vs G8 Dex 1.5 mg/kg 3× wk ip ([2]; G2 3 mg/kg 2× wk ip): NS (NS = not significant (p > 0.05)) | p, serum IL-13 concentration vs G9 Vehicle 1× wk ip ([2]; G2 3 mg/kg 2× wk ip): NS (NS = not significant (p > 0.05)) | p, serum IL-17A concentration vs G5 Bortezomib 0.3 mg/kg 1× wk ip ([2]; G2 3 mg/kg 2× wk ip): NS (NS = not significant (p > 0.05)) | p, serum IL-17A concentration vs G6 Bortezomib 0.3 mg/kg 2× wk ip ([2]; G2 3 mg/kg 2× wk ip): NS (NS = not significant (p > 0.05)) | p, serum IL-17A concentration vs G7 CTX 50 mg/kg 1× wk ip ([2]; G2 3 mg/kg 2× wk ip): p < 0.001 | p, serum IL-17A concentration vs G8 Dex 1.5 mg/kg 3× wk ip ([2]; G2 3 mg/kg 2× wk ip): NS (NS = not significant (p > 0.05)) | p, serum IL-17A concentration vs G9 Vehicle 1× wk ip ([2]; G2 3 mg/kg 2× wk ip): NS (NS = not significant (p > 0.05)) | p, serum IP-10 concentration vs G5 Bortezomib 0.3 mg/kg 1× wk ip ([2]; G2 3 mg/kg 2× wk ip): NS (NS = not significant (p > 0.05))
